Experimental data: the NIST ThermoML archive (doi:10.1021/je700193w)
± gives the expanded uncertainty stated by the source.

Tests used:
[1] = xn = mol fraction of the nth substance listed; conditions: 101 kPa, Liquid
[2] = excess molar enthalpy (molar enthalpy of mixing); xn = mol fraction of the nth substance listed; conditions: 101 kPa, Liquid

C=C1CCC2CC1C2(C)C (stereo not drawn) [β-pinene] + CC(C)CO
Conditions | excess molar enthalpy, [2] [kcal/mol] | mass density, [1] [kg/m3] | speed of sound, [1] [m/s]
283.15 K, x1 = 0.0529 | 0.0158 ± 0.00167 | – | –
283.15 K, x1 = 0.0566 | – | 815.77 ± 0.7 | 1248.3 ± 5.1
283.15 K, x1 = 0.1066 | – | 820.99 ± 0.69 | 1257.1 ± 5.1
283.15 K, x1 = 0.109 | 0.0306 ± 0.00191 | – | –
283.15 K, x1 = 0.2011 | – | 829.88 ± 0.68 | 1270.2 ± 5.1
283.15 K, x1 = 0.2159 | 0.0605 ± 0.00263 | – | –
283.15 K, x1 = 0.2931 | – | 837.56 ± 0.67 | 1281.1 ± 5.2
283.15 K, x1 = 0.3175 | 0.0851 ± 0.00335 | – | –
283.15 K, x1 = 0.395 | – | 845.26 ± 0.66 | 1292.2 ± 5.2
283.15 K, x1 = 0.4299 | 0.108 ± 0.00406 | – | –
283.15 K, x1 = 0.4928 | – | 851.82 ± 0.65 | 1302 ± 5.2
283.15 K, x1 = 0.5331 | 0.124 ± 0.00454 | – | –
283.15 K, x1 = 0.6112 | – | 859.03 ± 0.63 | 1313.9 ± 5.3
283.15 K, x1 = 0.6229 | 0.13 ± 0.00478 | – | –
283.15 K, x1 = 0.6906 | – | 863.45 ± 0.63 | 1321.1 ± 5.3
283.15 K, x1 = 0.7198 | 0.127 ± 0.00478 | – | –
283.15 K, x1 = 0.7939 | – | 868.88 ± 0.62 | 1330.7 ± 5.3
283.15 K, x1 = 0.8249 | 0.111 ± 0.0043 | – | –
283.15 K, x1 = 0.8682 | – | 872.61 ± 0.61 | 1337.7 ± 5.3
283.15 K, x1 = 0.9096 | 0.0841 ± 0.00335 | – | –
283.15 K, x1 = 0.9393 | – | 876.05 ± 0.61 | 1346.2 ± 5.3
283.15 K, x1 = 0.9686 | 0.0672 ± 0.00287 | – | –
298.15 K, x1 = 0.0481 | – | 803.39 ± 0.72 | 1195.7 ± 4.9
298.15 K, x1 = 0.0529 | 0.0217 ± 0.00167 | – | –
298.15 K, x1 = 0.109 | 0.044 ± 0.00239 | – | –
298.15 K, x1 = 0.1107 | – | 809.85 ± 0.71 | 1203.9 ± 4.9
298.15 K, x1 = 0.201 | – | 818.16 ± 0.7 | 1214.9 ± 5
298.15 K, x1 = 0.2159 | 0.0841 ± 0.00335 | – | –
298.15 K, x1 = 0.2969 | – | 826.03 ± 0.69 | 1225.1 ± 5
298.15 K, x1 = 0.3175 | 0.115 ± 0.0043 | – | –
298.15 K, x1 = 0.4002 | – | 833.57 ± 0.67 | 1235.2 ± 5
298.15 K, x1 = 0.4299 | 0.141 ± 0.00502 | – | –
298.15 K, x1 = 0.4896 | – | 839.51 ± 0.67 | 1243.9 ± 5
298.15 K, x1 = 0.5331 | 0.156 ± 0.0055 | – | –
298.15 K, x1 = 0.5856 | – | 845.33 ± 0.66 | 1252.2 ± 5.1
298.15 K, x1 = 0.6229 | 0.161 ± 0.00574 | – | –
298.15 K, x1 = 0.6785 | – | 850.56 ± 0.65 | 1260.4 ± 5.1
298.15 K, x1 = 0.7198 | 0.152 ± 0.0055 | – | –
298.15 K, x1 = 0.7841 | – | 856.21 ± 0.64 | 1270.1 ± 5.1
298.15 K, x1 = 0.8249 | 0.131 ± 0.00478 | – | –
298.15 K, x1 = 0.8875 | – | 861.41 ± 0.63 | 1280.4 ± 5.2
298.15 K, x1 = 0.9096 | 0.101 ± 0.00382 | – | –
298.15 K, x1 = 0.933 | – | 863.62 ± 0.63 | 1285.2 ± 5.2
298.15 K, x1 = 0.9686 | 0.086 ± 0.00335 | – | –
303.15 K, x1 = 0.0505 | – | 799.78 ± 0.73 | 1181.7 ± 4.9
303.15 K, x1 = 0.0529 | 0.0275 ± 0.00215 | – | –
303.15 K, x1 = 0.1044 | – | 805.23 ± 0.72 | 1188.4 ± 4.9
303.15 K, x1 = 0.109 | 0.0566 ± 0.00263 | – | –
303.15 K, x1 = 0.2023 | – | 814.23 ± 0.71 | 1200.2 ± 4.9
303.15 K, x1 = 0.2159 | 0.116 ± 0.00454 | – | –
303.15 K, x1 = 0.2999 | – | 822.12 ± 0.69 | 1210.6 ± 4.9
303.15 K, x1 = 0.3175 | 0.154 ± 0.0055 | – | –
303.15 K, x1 = 0.3929 | – | 828.94 ± 0.68 | 1219.2 ± 5
303.15 K, x1 = 0.4299 | 0.185 ± 0.00645 | – | –
303.15 K, x1 = 0.4877 | – | 835.22 ± 0.67 | 1227.7 ± 5
303.15 K, x1 = 0.5331 | 0.2 ± 0.00693 | – | –
303.15 K, x1 = 0.6108 | – | 842.66 ± 0.66 | 1238.3 ± 5
303.15 K, x1 = 0.6229 | 0.204 ± 0.00717 | – | –
303.15 K, x1 = 0.6829 | – | 846.72 ± 0.65 | 1244.6 ± 5.1
303.15 K, x1 = 0.7198 | 0.191 ± 0.00669 | – | –
303.15 K, x1 = 0.7908 | – | 852.45 ± 0.64 | 1254.4 ± 5.1
303.15 K, x1 = 0.8249 | 0.162 ± 0.00574 | – | –
303.15 K, x1 = 0.8846 | – | 857.17 ± 0.64 | 1263.9 ± 5.1
303.15 K, x1 = 0.9096 | 0.124 ± 0.00454 | – | –
303.15 K, x1 = 0.9299 | – | 859.39 ± 0.63 | 1268.9 ± 5.1
303.15 K, x1 = 0.9686 | 0.103 ± 0.00406 | – | –
313.15 K, x1 = 0.0401 | – | 790.45 ± 0.74 | 1143.3 ± 4.7
313.15 K, x1 = 0.0529 | 0.0356 ± 0.00239 | – | –
313.15 K, x1 = 0.1042 | – | 796.91 ± 0.73 | 1150.9 ± 4.8
313.15 K, x1 = 0.109 | 0.0743 ± 0.00335 | – | –
313.15 K, x1 = 0.2004 | – | 805.6 ± 0.7 | 1160.9 ± 4.8
313.15 K, x1 = 0.2159 | 0.141 ± 0.00526 | – | –
313.15 K, x1 = 0.3012 | – | 813.68 ± 0.71 | 1170.6 ± 4.8
313.15 K, x1 = 0.3175 | 0.187 ± 0.00645 | – | –
313.15 K, x1 = 0.3902 | – | 820.11 ± 0.7 | 1178.2 ± 4.9
313.15 K, x1 = 0.4299 | 0.221 ± 0.00765 | – | –
313.15 K, x1 = 0.51 | – | 827.98 ± 0.68 | 1187.7 ± 4.9
313.15 K, x1 = 0.5331 | 0.239 ± 0.00813 | – | –
313.15 K, x1 = 0.6202 | – | 834.55 ± 0.67 | 1196.8 ± 4.9
313.15 K, x1 = 0.6229 | 0.242 ± 0.00813 | – | –
313.15 K, x1 = 0.6847 | – | 838.19 ± 0.67 | 1202.2 ± 4.9
313.15 K, x1 = 0.7198 | 0.225 ± 0.00765 | – | –
313.15 K, x1 = 0.7768 | – | 843.06 ± 0.66 | 1210.2 ± 4.9
313.15 K, x1 = 0.8249 | 0.192 ± 0.00669 | – | –
313.15 K, x1 = 0.8969 | – | 849.21 ± 0.65 | 1222.1 ± 5
313.15 K, x1 = 0.9096 | 0.147 ± 0.0055 | – | –
313.15 K, x1 = 0.9601 | – | 852.46 ± 0.64 | 1230.5 ± 5
313.15 K, x1 = 0.9686 | 0.123 ± 0.00454 | – | –
323.15 K, x1 = 0.0529 | 0.044 ± 0.00263 | – | –
323.15 K, x1 = 0.0547 | – | 783.66 ± 0.76 | 1114.2 ± 4.7
323.15 K, x1 = 0.1021 | – | 788.33 ± 0.75 | 1119.3 ± 4.7
323.15 K, x1 = 0.109 | 0.0839 ± 0.00359 | – | –
323.15 K, x1 = 0.207 | – | 797.66 ± 0.73 | 1129.4 ± 4.7
323.15 K, x1 = 0.2159 | 0.163 ± 0.00598 | – | –
323.15 K, x1 = 0.2989 | – | 804.85 ± 0.72 | 1136.8 ± 4.7
323.15 K, x1 = 0.3175 | 0.215 ± 0.00741 | – | –
323.15 K, x1 = 0.4024 | – | 812.32 ± 0.71 | 1144.6 ± 4.8
323.15 K, x1 = 0.4299 | 0.248 ± 0.00837 | – | –
323.15 K, x1 = 0.5041 | – | 818.98 ± 0.7 | 1152.7 ± 4.8
323.15 K, x1 = 0.5331 | 0.273 ± 0.00932 | – | –
323.15 K, x1 = 0.6074 | – | 825.2 ± 0.69 | 1160.6 ± 4.8
323.15 K, x1 = 0.6229 | 0.274 ± 0.00932 | – | –
323.15 K, x1 = 0.6965 | – | 830.27 ± 0.68 | 1167.7 ± 4.8
323.15 K, x1 = 0.7198 | 0.255 ± 0.0086 | – | –
323.15 K, x1 = 0.8063 | – | 836.02 ± 0.67 | 1177.1 ± 4.8
323.15 K, x1 = 0.8249 | 0.22 ± 0.00765 | – | –
323.15 K, x1 = 0.8887 | – | 840.5 ± 0.66 | 1184.7 ± 4.9
323.15 K, x1 = 0.9096 | 0.169 ± 0.00598 | – | –
323.15 K, x1 = 0.9618 | – | 844.41 ± 0.66 | 1192.6 ± 4.9
323.15 K, x1 = 0.9686 | 0.141 ± 0.00526 | – | –
